Source: patent US20210386721A1, “SUBSTITUTED PHENYLPROPENYL PYRIDINE DERIVATIVES, THEIR PREPARATION AND PHARMACEUTICAL APPLICATIONS” (SHANGHAI HAIYAN PHARMACEUTICAL TECHNOLOGY CO., LTD., priority 2019, published 2021)

What was measured:
[1] = target: T1, PD-1/PD-L1 (Homo sapiens, UniProt Q9NZQ7); experiment: PD-1/PD-L1 binding assay (HTRF, PPI-HTRF); conditions: HTRF PD1/PD-L1 binding assay kit; 10 nM Tag1-PD-L1; 25° C.
T1 construct: purchased Cisbio 63ADK000CPDPEB
Procedure: Assay 1 PD-1/PD-L1 Binding Assay
DMSO is from Sigma, Cat No: D5879; 384-well small volume plate (white) is from Greiner, Cat No: 784075; Anti-PD1 blocking antibody (IC50: 10 nM) is from Cisbio, Cat No: 64CUS000C-1a; Anti-PDL1 blocking antibody (IC50: 0.3 nM) is from Cisbio, Cat No: 64CUS000C-1b; HTRF PD1/PD-L1 binding assay kit is from Cisbio, Cat No: 63ADK000CPDPEB.
1. Prepare the compound to be tested at 2x concentration into 1× reaction buffer containing 4% DMSO;
2. Tag1-PD-L1 protein and Tag2-PD1 protein were prepared in 1× reaction buffer at concentrations of […] and 10 nM, respectively. The final reaction concentration of the experiment was 10 nM Tag1-PD-L1 and 2 nM […];
3. anti-Tag1-Eu3+ antibody is prepared in 1x concentration detection buffer at a ratio of 1:100;
4. anti-Tag2-XL665 antibody is prepared in 1x concentration detection buffer at a ratio of 1:25; Experimental steps
1. 5 μL of compounds to be tested (2×) was added;
2. 2.5 ul Tag1-PD-L1 protein and 2.5 ul Tag2-PD1 protein were added respectively, and the total reaction system is 10 ul, and reacted at 25° C. for 15 minutes;
3. 5 ul anti-Tag1-Eu3+ antibody and 5 ul anti-Tag2-XL665 antibody were added respectively, and reacted at 25° C. for 16 hours;
4. The fluorescence microplate reader HTRF reading program was used to read two readings at 665 nm and 620 nm, the ratio of the two wavelengths was used to judge the activity of the compound, and the IC50 of the compound to be tested is calculated by XLFIT5.0 (IDBS).

[2] = test system: Jurkat T(PD1 Luc-)/CHOK1(PDL-1); experiment: Jurkat T(PD1 Luc-)/CHOK1(PDL-1) cell experiment (luciferase reporter); assay type: cell-based; conditions: CHO/PD-L1-OKT3 cells co-cultured with Jurkat/PD1-NFAT-Luc cells for 6 hours; Bio-Glo luciferase signal
Procedure: Assay 2 Jurkat T(PD1 Luc-)/CHOK1(PDL-1) Cell Experiment
G418, Sangon Biotech #A100859-0001, Cat Number G108BA0003, 5 ml of deionized water being added into each bottle, store at 4° C.
CHO/PD-L1-OKT3 cells (constructed by referring to Promega's PD-1/PD-L1 Blockade Bioassays system) cultured in F-12K medium (containing 10% FBS, 800 ug/ml G418, 400 ug/ml D Hygromycin B) were planted into a 96-well plate at 2×10^4 per well, and incubated for 24 hours at 37° C. and 5% CO2. part of the medium was removed, and the test compound dissolved in DMSO with a final concentration of 1 uM was added, and DMSO at the same concentration was added into the control cells. Jurkat/PD1-NFAT-Luc cells (constructed by referring to Promega's PD-1/PD-L1 Blockade Bioassays system) were added at 5×10^5 per well at the same time, and cultured for 6 hours. The corresponding luciferase signal was detected by Bio-Glo™ (Promega, G7940) reagent. The EC50 of each compound to be tested was calculated through the non-linear regression of XLfit software.

T1 sequence (Q9NZQ7 19-238 limits assumed): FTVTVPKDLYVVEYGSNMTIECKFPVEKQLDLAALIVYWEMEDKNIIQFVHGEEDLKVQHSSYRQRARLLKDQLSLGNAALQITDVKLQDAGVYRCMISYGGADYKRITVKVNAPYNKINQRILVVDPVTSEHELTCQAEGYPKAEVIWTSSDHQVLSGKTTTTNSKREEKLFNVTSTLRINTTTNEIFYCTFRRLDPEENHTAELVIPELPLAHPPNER

SMILES | IC50 [1] [nM] | EC50 [2] [nM]
COc1cc(/C=C/c2cccc(-c3cccc(-c4nc5cc(CN6CC[C@@H](C(=O)O)C6)cc(C#N)c5o4)c3C)c2C)c(C(F)(F)F)cc1CN[C@@H](C)CO [Z-34, (R)-1-((7-cyano-2-(3′-((E)-4-((((S)-1-hydroxypropan-2-yl)amino)methyl)-5-methoxy-2-(trifluoromethyl)styryl)-2,2′-dimethyl-[1,1′-biphenyl]-3-yl)benzo[d]oxazol-5-yl)methyl)pyrrolidine-3-carboxylic Acid] | 2 | 79
Cc1cc(/C=C/c2nccc(-c3cccc(NC(=O)c4ccc(CN5CC[C@@H](O)C5)cn4)c3C)c2Cl)c(Cl)cc1CN1CCCC[C@H]1C(=O)O [Z-83] | 1 | 113
COc1cc(/C=C/c2cccc(-c3cccc(NC(=O)c4ccc(CN5CC[C@@H](O)C5)cn4)c3C)c2C)c(C(F)(F)F)cc1CN1CCCC[C@H]1C(=O)O [Z-102] | 1 | 9
COc1cc(/C=C/c2cccc(-c3cccc(NC(=O)c4cc(CN5CC[C@@H](O)C5)ccn4)c3C)c2C)c(C(F)(F)F)cc1CN1CC[C@@H](C(=O)O)C1 [Z-120] | 1 | 15
COc1cc(/C=C/c2cccc(-c3cccc(-c4nc5cc(CN6CC[C@@H](C(=O)O)C6)cc(C#N)c5o4)c3C)c2C)c(C(F)(F)F)cc1CNCCO [Z-33] | 1 | 74
COc1cc(C(=O)Nc2cccc(-c3cccc(/C=C/c4cc(OC)c(CN5CCC[C@H]5C(=O)O)cc4C(F)(F)F)c3C)c2C)ncc1CNCCO [Z-112] | 1 | 25
COc1cc(/C=C/c2ccnc(-c3cccc(-c4nc5cc(CN6CC[C@@H](O)C6)cc(C#N)c5o4)c3C)c2Cl)c(C(F)(F)F)cc1CN1CC[C@@H](C(=O)O)C1 [Z-52] | 1 | 153
COc1cc(/C=C/c2cccc(-c3cccc(-c4nc5cc(CN6CC[C@H](C(=O)O)C6)cc(C#N)c5o4)c3C)c2C)c(C(F)(F)F)cc1CN1CC[C@@H](O)C1 [Z-35] | 2 | 29
COC(=O)[C@@H]1CCN(Cc2cc(C(F)(F)F)c(/C=C/c3cccc(-c4cccc(NC(=O)c5cc(OC)c(CN6CC[C@@H](O)C6)cn5)c4C)c3C)cc2OC)C1 [Z-133] | 2 | 31
COc1cc(/C=C/c2cccc(-c3cccc(-c4nc5cc(CN6CC[C@@H](O)C6)cc(C#N)c5o4)c3C)c2C#N)c(C(F)(F)F)cc1CN1CC[C@@H](C(=O)O)C1 [Z-43] | 1 | 72
COc1cc(C(=O)Nc2cccc(-c3cccc(/C=C/c4cc(CN5CC[C@@H](C(=O)O)C5)ccc4C(F)(F)F)c3C)c2C)ncc1CN1CC[C@@H](O)C1 [Z-124] | 1 | 109
COc1cc(/C=C/c2cccc(-c3cccc(NC(=O)c4ccc(CN5CC[C@@H](O)C5)cn4)c3C)c2C)c(C(F)(F)F)cc1CN1CCC(C)(C(=O)O)C1 (some centres unmarked) [Z-103] | 1 | 19
Cc1cc(/C=C/c2cccc(-c3cccc(NC(=O)c4ccc(CN5CC[C@@H](O)C5)cn4)c3C)c2C)c(C2CC2)cc1CN1CC[C@@H](C(=O)O)C1 [Z-91] | 1 | 147
COc1cc(/C=C/c2cccc(-c3cccc(-c4nc5cc(CN6CC[C@@H](C(=O)O)C6)cc(C#N)c5o4)c3Cl)c2C)c(C(F)(F)F)cc1CN1CC[C@@H](O)C1 [Z-42] | 1 | 64
COc1cc(/C=C/c2cccc(-c3cccc(NC(=O)c4ccc(CNC[C@@H]5CCC(=O)N5)cn4)c3C)c2C)c(C(F)(F)F)cc1CN1CC[C@@H](C(=O)O)C1 [Z-110, (R)-1-(4-((E)-2-(2,2′-dimethyl-3′-(5-(((((S)-5-oxopyrrolidin-2-yl)methyl)amino)methyl)picolinamido)-[1,1′-biphenyl]-3-yl)vinyl)-2-methoxy-5-(trifluoromethyl)benzyl)pyrrolidine-3-carboxylic Acid] | 1 | 153
COc1cc(/C=C/c2cccc(-c3cccc(NC(=O)c4ccc(CN5CC[C@@H](O)C5)cn4)c3Cl)c2C)c(C(F)(F)F)cc1CNC[C@@H](O)CC(=O)O [Z-107] | 1 | 16
COc1cc(C(=O)Nc2cccc(-c3cccc(/C=C/c4cc(OC)c(CN5CC[C@@H](C(=O)O)C5)cc4C(F)(F)F)c3C)c2C)ncc1CN1CC(CO)C1 [Z-114, (R,E)-1-(4-(2-(3′-(5-((3-(hydroxymethyl)azetidin-1-yl)methyl)-4-methoxypicolinamido)-2,2′-dimethyl-[1,1′-biphenyl]-3-yl)vinyl)-2-methoxy-5-(trifluoromethyl)benzyl)pyrrolidine-3-carboxylic Acid] | 1 | 54
COc1cc(/C=C/c2cccc(-c3cccc(NC(=O)c4nc5c(n4C)CCN([C@H]4CC[C@@H](O)CC4)C5)c3C)c2C)c(C(F)(F)F)cc1CN1CC[C@@H](C(=O)O)C1 [Z-131, (R)-1-(4-((E)-2-(3′-(5-((1s,4s)-4-hydroxycyclohexyl)-1-methyl-4,5,6,7-tetrahydro-1H-imidazo[4,5-c]pyridine-2-carboxamido)-2,2′-dimethyl-[1,1′-biphenyl]-3-yl)vinyl)-2-methoxy-5-(trifluoromethyl)benzyl)pyrrolidine-3-carboxylic Acid] | 1 | 124
Cc1cc(/C=C/c2cccc(-c3cccc(-c4nc5cc(CN6CC[C@@H](C(=O)O)C6)cc(C#N)c5o4)c3C)c2C)c(C(F)(F)F)cc1CN1CC[C@@H](O)C1 [Z-18, (R)-1-((7-cyano-2-(3′-((E)-4-(((R)-3-hydroxypyrrolidin-1-yl)methyl)-5-methyl-2-(trifluoromethyl)styryl)-2,2′-dimethyl-[1,1′-biphenyl]-3-yl)benzo[d]oxazol-5-yl)methyl)pyrrolidine-3-carboxylic Acid] | 1 | 142

More lines, main results first:

IC50 [1] [nM] | SMILES | EC50 [2] [nM]
1 | COc1cc(/C=C/c2cccc(-c3cccc(Nc4nccc5cc(CN6CC[C@@H](O)C6)cnc45)c3C)c2C)c(C(F)(F)F)cc1CN1CCC[C@H]1C(=O)O [Z-11] | 137
1 | Cc1cc(/C=C/c2nccc(-c3cccc(NC(=O)c4ccc(CN5CC[C@@H](O)C5)cn4)c3Cl)c2C#N)c(Cl)cc1CN1CCCC[C@H]1C(=O)O [Z-81] | 44
1 | COc1cc(/C=C/c2cccc(-c3cccc(-c4nc5c(C#N)cc(CN6CC[C@@H](C(=O)O)C6)cn5n4)c3C)c2C)c(C(F)(F)F)cc1CN1CC[C@@H](O)C1 [Z-53, (R)-1-((8-cyano-2-(3′-((E)-4-(((R)-3-hydroxypyrrolidin-1-yl)methyl)-5-methoxy-2-(trifluoromethyl)styryl)-2,2′-dimethyl-[1,1′-biphenyl]-3-yl)-[1,2,4]triazolo[1,5-a]pyridin-6-yl)methyl) pyrrolidine-3-carboxylic Acid] | 28
1 | Cc1cc(/C=C/c2nccc(-c3cccc(-c4nc5cc(CN6CC[C@@H](O)C6)cc(C#N)c5o4)c3C)c2C#N)c(C(F)(F)F)cc1CN1CC[C@@H](C(=O)O)C1 [Z-51] | 56
1 | COc1cc(C(=O)Nc2cccc(-c3cccc(/C=C/c4cc(OC)c(CN5CCC[C@H]5C(=O)O)cc4C(F)(F)F)c3C)c2C)ncc1CN1CC[C@@H](O)C1 [Z-115] | 31
< 1 | COc1cc(/C=C/c2ccnc(-c3cccc(Nc4nccc5cc(CN6CC[C@@H](O)C6)cnc45)c3C)c2C#N)c(C(F)(F)F)cc1CN1CC[C@@H](C(=O)O)C1 [Z-14] | 208
1 | Cc1cc(/C=C/c2nccc(-c3cccc(NC(=O)c4ccc(CN5CC[C@@H](O)C5)cn4)c3Cl)c2C)c(Cl)cc1CN1CC[C@@H](C(=O)O)C1 [Z-76] | 361
< 1 | COc1cc(/C=C/c2cccc(-c3cccc(NC(=O)c4ccc(CN5CC[C@@H](O)C5)cn4)c3Cl)c2F)c(C(F)(F)F)cc1CN1CC[C@@H](C(=O)O)C1 [Z-99] | 35
< 1 | COc1cc(/C=C/c2cccc(-c3cccc(NC(=O)c4ccc(CN5CC[C@@H](O)C5)cn4)c3C)c2C)c(C(F)(F)F)cc1CN1CC[C@H](C(=O)O)C1 [Z-97] | 2
